Values of other authors as cited in patent US10183022B2, “Pharmaceutical composition for treating ulcerative colitis” (EA Pharma Co., Ltd., priority 2014, dated 2019).

System: administered patients
Conditions: among the administered patients, intravenous infusion; cited from earlier work

Substance: Infliximab: anti-TNFα antibody, given by intravenous infusion
- Patients showing the loss of the response: ≤ 70%
